According to ChEMBL document CHEMBL1201862, “PubChem BioAssay data set” (2004):
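Growth conditions: 96-well plates. Treatment: test compound, 48 hours, 5 concentrations. Analysis: linear interpolation between bracketing concentrations; unreached endpoints set to highest concentration. GI50 is the concentration that inhibits growth by half.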 The source made the active and inactive calls. No stated cut-off is given here; in the data, active = GI50 up to about 1.1 µM and inactive = higher.

Experiments:
Experiment in all cases: growth of human tumour cells (NCI), 48 h
[1] = system: TK-10
[2] = system: K562
[3] = system: DMS-273
[4] = system: U-251
[5] = system: HOP-62
[6] = system: Malme-3M
[7] = system: SN12C
[8] = system: M14
[9] = system: ACHN
[10] = system: IGROV-1
[11] = system: M19-MEL
[12] = system: UACC-257
[13] = system: OVCAR-8
[14] = system: SNB-75
[15] = system: XF498
[16] = system: RPMI-8226
[17] = system: SK-MEL-2
[18] = system: OVCAR-5
[19] = system: OVCAR-3
[20] = system: 786-0
[21] = system: SNB-78
[22] = system: EKVX
[23] = system: SW-620
[24] = system: COLO 205
[25] = system: HCT-116
[26] = system: LXFL 529
[27] = system: KM-20L2
[28] = system: SF-539
[29] = system: UO-31
[30] = system: NCI-H460
[31] = system: SNB-19
[32] = system: SF-295
[33] = system: HCC 2998
[34] = system: RXF 393
[35] = system: SR
[36] = system: KM12
[37] = system: HL-60
[38] = system: HOP-18
[39] = system: A549
[40] = system: MOLT-4
[41] = system: HOP-92
[42] = system: DLD-1
[43] = system: SF-268
[44] = system: SK-MEL-5
[45] = system: NCI-H23
[46] = system: NCI-H226
[47] = system: A498
[48] = system: DMS-114
[49] = system: HCT-15
[50] = system: SK-OV-3
[51] = system: CAKI-1
[52] = system: UACC-62
[53] = system: NCI-H522
[54] = system: HT-29
[55] = system: OVCAR-4
[56] = system: SK-MEL-28
[57] = system: CCRF-CEM

Measured: GI50

Cc1ccccc1C(=O)c1c(O)c2c(c(O)c1Br)CCCC2
16.7 µM: [49]
inactive: [1] 17.8 µM | [2] 21.1 µM | [3] 17.6 µM | [4] 16.7 µM | [5] 37.2 µM | [6] 11.5 µM | [7] 18.1 µM | [8] 14 µM | [9] 17.9 µM | [10] 20.7 µM | [11] 15.6 µM | [12] 14.7 µM | [13] 17.3 µM | [14] 18.7 µM | [15] 21.7 µM | [16] 20.1 µM | [17] 16.7 µM | [18] 20 µM | [19] 13.8 µM | [20] 14.5 µM | [21] 21.5 µM | [22] 17.6 µM | [23] 18.7 µM | [24] 18.9 µM | [25] 16.6 µM | [26] 13 µM | [27] 19.4 µM | [28] 18.5 µM | [29] 17.5 µM | [30] 22 µM | [31] 23 µM | [32] 21.2 µM | [33] 19.5 µM | [34] 18.7 µM | [35] 16.2 µM | [36] 16.6 µM | [37] 5.07 µM | [38] 12.5 µM | [39] 23.2 µM | [40] 6.14 µM | [41] 23.2 µM | [42] 23 µM | [43] 15 µM | [44] 18.5 µM | [45] 26.2 µM | [46] 25.4 µM | [47] 22.1 µM | [48] 13.6 µM | [50] 21.8 µM | [51] 20.1 µM | [52] 15.1 µM | [53] 10.5 µM | [54] 27.9 µM | [55] 14.9 µM

Cc1ccc(NC(=O)/C(C#N)=C/c2ccccc2)c(C)c1
> 100 µM: [49]
inactive: [1] > 100 µM | [2] > 100 µM | [3] > 100 µM | [4] > 100 µM | [5] > 100 µM | [6] > 100 µM | [7] > 100 µM | [8] > 100 µM | [9] > 100 µM | [10] > 100 µM | [11] > 100 µM | [56] > 100 µM | [12] > 100 µM | [13] > 100 µM | [14] > 100 µM | [15] > 100 µM | [16] > 100 µM | [17] > 100 µM | [18] > 100 µM | [19] > 100 µM | [20] > 100 µM | [21] > 100 µM | [22] > 100 µM | [23] > 100 µM | [24] > 100 µM | [25] > 100 µM | [26] > 100 µM | [27] > 100 µM | [28] > 100 µM | [29] > 100 µM | [30] > 100 µM | [31] > 100 µM | [32] > 100 µM | [57] > 100 µM | [33] > 100 µM | [34] > 100 µM | [35] > 100 µM | [36] > 100 µM | [37] > 100 µM | [38] > 100 µM | [39] > 100 µM | [40] > 100 µM | [41] > 100 µM | [42] > 100 µM | [43] > 100 µM | [44] > 100 µM | [45] > 100 µM | [46] > 100 µM | [47] > 100 µM | [48] > 100 µM | [50] > 100 µM | [51] > 100 µM | [52] > 100 µM | [53] > 100 µM | [54] > 100 µM | [55] > 100 µM
